In experiment [1] the test system is plasma extravasation. In words: plasma extravasation induced in rats under the influence of capsaicin (tissue level of Evans blue). Type of experiment: in vivo. As to conditions: capsaicin 90 μg/kg i.v. The source says: In contrast, we have discovered that measurement of the activity of the cerebral histaminic neurons in vivo, reflected by the level of tele-methylhistamine, a characteristic metabolite of released histamine, constitutes a more sensitive test of agonist activity. In effect, compounds displaying an intrinsic activity ≤25% in vitro cause, in vivo, a maximum or virtually maximum fall in the level of the tele-methylhistamine. Another sensitive test of H3 agonist activity, in this instance in relation to peripheral organs, consists in measuring the plasma extravasation induced in rats under the influence of capsaicin (90 μg/kg i.v.) and determined by measuring the tissue level of Evans blue, a dye administered at the same time as capsaicin, namely 5 min before infusion and sacrifice (Saria et al., Naunyn-Schmiedeberg's Arch. Pharmacol. 1983, 324: 212).

The target of experiment [2] is T1, histamine H3 receptor (Rattus norvegicus, UniProt Q9QYN8).
T1 construct: synthesized from [^3 H]histidine by synaptosomes of rat cerebral cortex; from tissue; host or cells: rat cerebral cortex synaptosomes
T1 sequence (Q9QYN8 whole entry): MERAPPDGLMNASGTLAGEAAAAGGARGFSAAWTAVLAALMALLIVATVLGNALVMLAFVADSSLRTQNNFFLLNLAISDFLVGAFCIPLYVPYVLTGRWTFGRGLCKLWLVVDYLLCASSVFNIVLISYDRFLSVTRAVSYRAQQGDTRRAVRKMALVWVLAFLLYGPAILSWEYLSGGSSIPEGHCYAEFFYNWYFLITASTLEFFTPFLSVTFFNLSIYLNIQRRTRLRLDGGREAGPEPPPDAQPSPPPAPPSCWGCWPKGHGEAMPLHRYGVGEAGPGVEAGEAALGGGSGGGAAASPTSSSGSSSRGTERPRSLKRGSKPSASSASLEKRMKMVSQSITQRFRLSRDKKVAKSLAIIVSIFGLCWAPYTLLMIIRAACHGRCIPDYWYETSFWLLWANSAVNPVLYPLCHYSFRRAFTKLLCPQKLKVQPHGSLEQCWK
The experiment in a line: H3 agonist effect: inhibition of [3H]histamine release from synaptosomes of rat cerebral cortex. The experiment is classed as biochemical. To be noted: for Emax: maximum inhibition relative to that of exogenous histamine or (R)-alpha-methylhistamine, read-out: Intrinsic activity; for EC50: rat cerebral cortex synaptosomes, inhibition of [3H]histamine release, read-out: EC50 (50% effective concentration of partial agonists). The protocol:
The partial agonist effect of the compounds is evaluated by comparison of the maximum inhibition which they induce relative to the maximum inhibition induced by exogenous histamine or [R]-α-methylhistamine; the ratio of these two values giving the intrinsic activity of the compound with respect to the system.

For experiment [3], the system named is cerebral tele-methylhistamine. The experiment in a line: agonist effect in vivo: change in the level of cerebral tele-methylhistamine in mice. As to conditions: for Change in the level of cerebral tele-methylhistamine (relative to controls): H3 partial agonists, mice, 10 mg/kg p.o., 90 min. On the procedure: The effect of a partial agonist in vivo is characterized by the fact that the maximum reduction in the level of tele-methylhistamine which it induces at high dose is smaller than the reduction induced by a reference H3 agonist.
These various compounds were administered at a dose of 10 mg/kg p.o. and the mice sacrificed 90 min later.

Experiment [4] deals with T1, histamine H3 receptor. The experiment in a line: H3 antagonist power: reversal of (R)-alpha-methylhistamine-induced inhibition of [3H]histamine release from synaptosomes of rat cerebral cortex. Type of experiment: biochemical. As to conditions: read-out: Ki (apparent dissociation constant as histamine antagonist at the H3 receptors).
The subject of experiment [5] is cerebral tele-methylhistamine. In words: antagonist effect in vivo: change in the level of cerebral tele-methylhistamine in mice. To be noted: Mus musculus, po, 1.5 h, read-out: Change in the level of cerebral tele-methylhistamine (relative to controls). On the procedure: Results are collated in Tables II and III below:
These various compounds were administered at a dose of 10 mg/kg p.o., and the mice sacrificed 90 min later.

Where [6] appears, read: H3 antagonists, mice, 10 mg/kg p.o., 90 min.

Structures can show the parent of a compound that is named as a salt. Where two headings read alike, the source gives them in different places.

Take `O=C(NC(c1ccccc1)c1ccccc1)OCCCc1c[nH]cn1` [Example 2, 3-(1H-Imidazol-4-yl)propyl-N-(diphenylmethyl) carbamate]: the “response in the capsaicin-induced plasma extravasation test compared with (R)-α-methylhistamine” value in experiment [1] is recorded as “a response akin to that of (R)-α-methylhistamine”. In addition, the “behaviour in vitro at the H3 receptor” value in experiment [2] (in vitro, in words) is listed as “behaves essentially as an antagonist”. Further, the Emax in experiment [2] (in vitro) was around 20%. Further, in experiment [2], the EC50 came out at 100 nM. Further, the “Change in the level of cerebral tele-methylhistamine (relative to controls)” value (“Change in the level … (relative to controls)” for short) in experiment [3] is -30%. The “response in the tele-methylhistamine test compared with (R)-α-methylhistamine” value in experiment [3] (in vivo, in words) was “a response akin to that of (R)-α-methylhistamine”.
Consider `CC(C)CCOCCCc1c[nH]cn1` [Example 5, 3-(1H-Imidazol-4-yl)propyl 3-methylbutyl ether], for which the Emax in experiment [2] (in vitro) amounted to 20%. For the same compound, the EC50 in experiment [2] came out at 130 nM. Moreover, in experiment [3], the “Change in the level … (relative to controls)” value was -52%.
Consider `FC(F)(F)c1cccc(OCCCc2c[nH]cn2)c1` [Example 8, 4-[3-(3-Trifluoramethylphenoxy)propyl]-1H-imidazole], for which the Emax in experiment [2] (in vitro) was found to be 40%. In addition, in experiment [2], the EC50 came out at 100 nM. For the same compound, the “Change in the level … (relative to controls)” value in experiment [3] was -41%.
On to `c1nc(CCCOc2ccc3c(c2)CCCC3)c[nH]1` [Example 21, 4-[3-(1,2,3,4-Tetrahydro-6-naphthyloxy)propyl]-1H-imidazole], for which the Ki in experiment [4] came to 45 nM. Moreover, the change in vivo at 10 mg/kg in experiment [5] (setting [6]) came to 79%.
Consider `CCCCCNC(=O)OCCCc1c[nH]cn1` [Example 30, 3-(1H-Imidazol-4-yl)propyl-N-pentyl carbamate], for which the change in vivo at 10 mg/kg in experiment [5] (setting [6]) was found to be 67%.
The same measure, in the same setting: the result for `CCCN(CCC)C(=O)OCCCc1c[nH]cn1` [Example 39, 3-(1H-Imidazol-4-yl)propyl-N,N-dipropyl carbamate] reads 84%.
Turning to `c1ccc2cc(COCCCc3c[nH]cn3)ccc2c1` [Example 56, 3-(1H-Imidazol-4-yl)propyl 2-naphthylmethyl ether], in experiment [4], the Ki worked out at 22 nM.
For `c1nc(CCCOCCC2CC3CCC2C3)c[nH]1` (centres unmarked) [Example 61, 2-(Bicyclo[2.2.1]hept-2-yl)ethyl 3-(1H-imidazol-4-yl)propyl ether], the Ki in experiment [4] stood at 0.5 nM.
Same read-out and setting: the result for `CCCCCCCOCCCc1c[nH]cn1` [Example 64, 3-(1H-Imidazol-4-yl)propyl heptyl ether] reads 16 nM.
As for `CC(=O)c1ccc(OCCCc2c[nH]cn2)cc1` [Example 78, (4-(3-(1H-Imidazol-4-yl)propyloxy)phenyl)ethanone], the change in vivo at 10 mg/kg in experiment [5] (setting [6]) is 68%.
For the compound `O=C(c1ccc(OCCCc2c[nH]cn2)cc1)C1CC1` [Example 81, Cyclopropyl 4-(3-(1H-imidazol-4-yl)propyloxy)phenyl ketone], in experiment [5], the change in vivo at 10 mg/kg was found to be 72%.
With `CON=C(C)c1ccc(OCCCc2c[nH]cn2)cc1` [Example 93, (4-(3-(1H-Imidazol-4-yl)propyloxy)phenyl)ethanone O-methyloxime], in experiment [4], the Ki amounted to 25 nM.
With `CCC(C)(C)NC(=O)OCCCc1c[nH]cn1` [Example 110, 3-(1H-Imidazol-4-yl)propyl N-(2-methyl-2-butyl)carbamate], in experiment [2] (in words), the “functional class at the histamine H3 receptors (agonists)” value was “agonists or partial agonists”.
Regarding `CC(C)(C)CNC(=O)OCCCc1c[nH]cn1` [Example 111, N-(2,2-Dimethylpropyl)-3-(1H-imidazol-4-yl)propyl carbamate], the “functional class at the histamine H3 receptors (agonists)” value in experiment [2] (in words) is on record as “agonists or partial agonists”. For the same compound, the “Change in the level … (relative to controls)” value in experiment [3] is on record as -34%.
Turning to `C=CCNC(=O)OCCCc1c[nH]cn1` [Example 112, 3-(1H-Imidazol-4-yl)propyl-N-(2-propenyl) carbamate], the change in vivo at 10 mg/kg in experiment [5] (setting [6]) came out at 98%.
On to `Cc1cc(C)cc(NC(=O)OCCCc2c[nH]cn2)c1` [Example 115, N-(3,5-Dimethylphenyl)-3-(1H-imidazol-4-yl)propyl carbamate], for which, in experiment [4], the Ki was 44 nM.
Consider `CCCC(=NO)c1ccc(OCCCc2c[nH]cn2)cc1` [Example 140, (4-(3-(1H-Imidazol-4-yl)propyloxy)phenyl)butanone oxime], for which the change in vivo at 10 mg/kg in experiment [5] (setting [6]) turned out to be 84%.
For `Cc1nc(-c2ccc(OCCCc3c[nH]cn3)cc2)no1` [Example 149, 3-(1H-Imidazol-4-yl)propyl 4-(5-methyl-1,2,4-oxadiazol-3-yl)phenyl ether], the Ki in experiment [4] worked out at 44 nM.
Take `CC(=O)c1cccc(SCCc2c[nH]cn2)c1.O=C(O)C(=O)O` [Example 157, 4-[2-(3-Ethanoylphenylthio)ethyl]-1H-imidazole oxalate]: the “Change in the level … (relative to controls)” value in experiment [3] is listed as -38%.
Take `Cc1ccc(OCCc2c[nH]cn2)cc1` [Example 160, 4-[2-(4-Methylphenoxy)ethyl]-1H-imidazole oxalate]: the change in vivo at 10 mg/kg in experiment [5] (setting [6]) amounted to 95%.
Turning to `CSc1ccc(OCCCc2c[nH]cn2)cc1` [Example 166, 4-[3-(4-Thiomethylphenoxy)propyl]-1H-imidazole oxalate], the Ki in experiment [4] stood at 3 nM.
